Results reported in patent publication US12637461B2, “Compounds for the activation of AMPK” (PFIZER INC., priority 2022, dated 2026).

Target: T1, human AMPK α2β2γ3 (Homo sapiens, UniProt O43741+P54646+Q9UGI9)
T1 construct: expressed in transfected cells; host or cells: HEK293AD cells, MaxCyte bulk electroporation
Test: Primary cellular assay: γ3 associated phospho-Thr172 AMPK detection (custom pAMPK Surefire AlphaLISA) in α2β2γ3 bulk transiently transfected HEK293 cells
Assay type: cell-based
Settings: activation of human AMPK α2β2γ3 (γ3 pThr172 AMPK signal) in transiently transfected HEK293 cells, 20 minutes compound incubation; for Emax: 20 min, geometric mean of the asymptotic max, read-out: Assay GMean Asy. Max (%); for EC50: geometric mean EC50, read-out: Assay GMean EC50
Outline: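 Transiently co-transfected (α2/β2/γ3 plasmids, electroporation) HEK293AD cells, plated 2 days in low-glucose DMEM+10% FBS, treated 20 min with compounds (11-point half-log dilutions). Lysates read by modified AlphaLISA capturing γ3 with pThr172 antibody detection. % effect relative to 30 μM HPE and DMSO; EC50 and Emax from curve fit.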

T1 sequence (P54646 whole entry): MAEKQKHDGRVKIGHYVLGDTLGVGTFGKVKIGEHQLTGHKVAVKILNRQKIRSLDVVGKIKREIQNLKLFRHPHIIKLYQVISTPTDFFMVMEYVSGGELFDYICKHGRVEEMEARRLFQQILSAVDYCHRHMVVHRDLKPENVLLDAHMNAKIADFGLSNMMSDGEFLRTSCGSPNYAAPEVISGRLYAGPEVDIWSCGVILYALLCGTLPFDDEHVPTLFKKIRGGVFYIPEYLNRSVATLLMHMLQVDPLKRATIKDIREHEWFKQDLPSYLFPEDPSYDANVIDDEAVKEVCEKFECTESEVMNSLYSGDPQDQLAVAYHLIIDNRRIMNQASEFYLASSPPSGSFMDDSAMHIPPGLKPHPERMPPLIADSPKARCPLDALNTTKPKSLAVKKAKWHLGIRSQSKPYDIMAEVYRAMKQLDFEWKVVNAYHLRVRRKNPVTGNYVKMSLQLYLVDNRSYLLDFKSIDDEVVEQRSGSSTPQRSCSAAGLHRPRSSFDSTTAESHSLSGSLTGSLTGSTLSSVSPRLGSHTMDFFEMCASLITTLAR
T1 sequence (O43741 whole entry): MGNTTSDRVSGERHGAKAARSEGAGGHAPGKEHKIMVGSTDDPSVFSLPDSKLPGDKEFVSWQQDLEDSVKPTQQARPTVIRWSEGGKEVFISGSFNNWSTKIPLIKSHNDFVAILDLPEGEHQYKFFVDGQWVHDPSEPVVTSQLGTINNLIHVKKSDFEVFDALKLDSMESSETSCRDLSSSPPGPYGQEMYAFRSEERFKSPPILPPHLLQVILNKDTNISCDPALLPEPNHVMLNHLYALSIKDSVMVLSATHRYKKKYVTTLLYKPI
T1 sequence (Q9UGI9 whole entry): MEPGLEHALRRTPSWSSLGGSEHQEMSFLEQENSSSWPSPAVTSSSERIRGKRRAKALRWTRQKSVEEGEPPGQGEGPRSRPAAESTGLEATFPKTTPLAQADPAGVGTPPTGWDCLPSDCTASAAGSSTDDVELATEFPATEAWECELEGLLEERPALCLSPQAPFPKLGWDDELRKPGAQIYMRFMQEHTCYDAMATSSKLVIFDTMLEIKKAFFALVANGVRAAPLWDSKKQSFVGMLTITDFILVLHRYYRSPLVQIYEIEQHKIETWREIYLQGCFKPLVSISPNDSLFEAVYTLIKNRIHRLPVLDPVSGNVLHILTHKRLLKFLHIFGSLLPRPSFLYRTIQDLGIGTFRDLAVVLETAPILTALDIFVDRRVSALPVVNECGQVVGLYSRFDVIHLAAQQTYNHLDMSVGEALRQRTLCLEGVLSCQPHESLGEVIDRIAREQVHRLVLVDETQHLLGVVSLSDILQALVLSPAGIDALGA

| Emax | EC50 | SMILES |
| --- | --- | --- |
| 92.9% | 256 nM | C[C@]1(c2cccc(Cl)c2F)CN(c2ccccc2F)C(=O)c2cnc(NC3CN(C(=O)[C@@H]4C[C@@H]4F)C3)c(F)c21 [compound 56, (4R)-4-(3-chloro-2-fluorophenyl)-5-fluoro-6-({1-[(1S,2S)-2-fluorocyclopropane-1-carbonyl]azetidin-3-yl}amino)-2-(2-fluorophenyl)-4-methyl-3,4-dihydro-2,7-naphthyridin-1(2H)-one] |
| 84.9% | 75 nM | CC(C)(O)C(=O)N1CC(Nc2ncc3c(c2F)[C@@](C)(c2cccc(Cl)c2F)CN(c2ccc(CO)cn2)C3=O)C1 [compound 57, (4R)-4-(3-chloro-2-fluorophenyl)-5-fluoro-6-{[1-(2-hydroxy-2-methylpropanoyl)azetidin-3-yl]amino}-2-[5-(hydroxymethyl)pyridin-2-yl]-4-methyl-3,4-dihydro-2,7-naphthyridin-1(2H)-one] |
| 74.6% | 113 nM | Cn1cncc1C(=O)N1CC(Nc2ncc3c(c2F)[C@@](C)(c2cccc(Cl)c2F)CN(c2ccc(CO)cn2)C3=O)C1 [compound 58, (4R)-4-(3-chloro-2-fluorophenyl)-5-fluoro-2-[5-(hydroxymethyl)pyridin-2-yl]-4-methyl-6-{[1-(1-methyl-1H-imidazole-5-carbonyl)azetidin-3-yl]amino}-3,4-dihydro-2,7-naphthyridin-1(2H)-one] |
| 62.4% | 157 nM | C[C@]1(c2cccc(Cl)c2F)CN(c2ccc(CO)cn2)C(=O)c2cnc(NC3CN(C(=O)c4ncccn4)C3)c(F)c21 [compound 59, (4R)-4-(3-chloro-2-fluorophenyl)-5-fluoro-2-[5-(hydroxymethyl)pyridin-2-yl]-4-methyl-6-{[1-(pyrimidine-2-carbonyl)azetidin-3-yl]amino}-3,4-dihydro-2,7-naphthyridin-1(2H)-one] |
| 48.6% | 53.5 nM | Cn1cc(C(=O)N2CC(Nc3ncc4c(c3F)[C@@](C)(c3cccc(Cl)c3F)CN(c3ccc(CO)cn3)C4=O)C2)nn1 [compound 60, (4R)-4-(3-chloro-2-fluorophenyl)-5-fluoro-2-[5-(hydroxymethyl)pyridin-2-yl]-4-methyl-6-{[1-(1-methyl-1H-1,2,3-triazole-4-carbonyl)azetidin-3-yl]amino}-3,4-dihydro-2,7-naphthyridin-1(2H)-one] |
| 100% | 92.2 nM | Cn1cc(F)c(N2C[C@](C)(c3cccc(Cl)c3F)c3c(cnc(NC4CN(C(=O)C(C)(C)O)C4)c3F)C2=O)n1 [compound 61, (4R)-4-(3-chloro-2-fluorophenyl)-5-fluoro-2-(4-fluoro-1-methyl-1H-pyrazol-3-yl)-6-{[1-(2-hydroxy-2-methylpropanoyl)azetidin-3-yl]amino}-4-methyl-3,4-dihydro-2,7-naphthyridin-1(2H)-one] |
| 138% | 98.1 nM | Cn1cc(F)c(N2C[C@](C)(c3cccc(Cl)c3F)c3c(cnc(NC4CN(C(=O)C5(O)CC5)C4)c3F)C2=O)n1 [compound 62, (4R)-4-(3-chloro-2-fluorophenyl)-5-fluoro-2-(4-fluoro-1-methyl-1H-pyrazol-3-yl)-6-{[1-(1-hydroxycyclopropane-1-carbonyl)azetidin-3-yl]amino}-4-methyl-3,4-dihydro-2,7-naphthyridin-1(2H)-one] |
| 90% | 55.1 nM | Cn1cc(F)c(N2C[C@](C)(c3cccc(Cl)c3F)c3c(cnc(NC4CN(C(=O)CC(F)(F)F)C4)c3F)C2=O)n1 [compound 63, (4R)-4-(3-chloro-2-fluorophenyl)-5-fluoro-2-(4-fluoro-1-methyl-1H-pyrazol-3-yl)-4-methyl-6-{[1-(3,3,3-trifluoropropanoyl)azetidin-3-yl]amino}-3,4-dihydro-2,7-naphthyridin-1(2H)-one] |
| 80.4% | 159 nM | Cn1cc(F)c(N2C[C@](C)(c3cccc(Cl)c3F)c3c(cnc(NC4CN(C(=O)CC(C)(C)O)C4)c3F)C2=O)n1 [compound 64, (4R)-4-(3-chloro-2-fluorophenyl)-5-fluoro-2-(4-fluoro-1-methyl-1H-pyrazol-3-yl)-6-{[1-(3-hydroxy-3-methylbutanoyl)azetidin-3-yl]amino}-4-methyl-3,4-dihydro-2,7-naphthyridin-1(2H)-one] |
| 83.4% | 55.1 nM | Cn1cc(F)c(N2C[C@](C)(c3cccc(Cl)c3F)c3c(cnc(NC4CN(CC(=O)N5CCCC5)C4)c3F)C2=O)n1 [compound 65, (4R)-4-(3-chloro-2-fluorophenyl)-5-fluoro-2-(4-fluoro-1-methyl-1H-pyrazol-3-yl)-4-methyl-6-({1-[2-oxo-2-(pyrrolidin-1-yl)ethyl]azetidin-3-yl}amino)-3,4-dihydro-2,7-naphthyridin-1(2H)-one] |
| 88.8% | 29.8 nM | CCN(C)C(=O)CN1CC(Nc2ncc3c(c2F)[C@@](C)(c2cccc(Cl)c2F)CN(c2nn(C)cc2F)C3=O)C1 [compound 66, 2-(3-{[(5R)-5-(3-chloro-2-fluorophenyl)-4-fluoro-7-(4-fluoro-1-methyl-1H-pyrazol-3-yl)-5-methyl-8-oxo-5,6,7,8-tetrahydro-2,7-naphthyridin-3-yl]amino}azetidin-1-yl)-N-ethyl-N-methylacetamide] |
| 40.1% | 76.8 nM | CNC(=O)CN1CC(Nc2ncc3c(c2F)[C@@](C)(c2cccc(Cl)c2F)CN(c2nn(C)cc2F)C3=O)C1 [compound 67, 2-(3-{[(5R)-5-(3-chloro-2-fluorophenyl)-4-fluoro-7-(4-fluoro-1-methyl-1H-pyrazol-3-yl)-5-methyl-8-oxo-5,6,7,8-tetrahydro-2,7-naphthyridin-3-yl]amino}azetidin-1-yl)-N-methylacetamide] |
| 29.6% | 247 nM | Cn1cc(F)c(N2C[C@](C)(c3cccc(Cl)c3F)c3c(cnc(NC4CN(CC(N)=O)C4)c3F)C2=O)n1 [compound 68, 2-(3-{[(5R)-5-(3-chloro-2-fluorophenyl)-4-fluoro-7-(4-fluoro-1-methyl-1H-pyrazol-3-yl)-5-methyl-8-oxo-5,6,7,8-tetrahydro-2,7-naphthyridin-3-yl]amino}azetidin-1-yl)acetamide] |
| 46.1% | 45.3 nM | CN(CC1CC1)C(=O)CN1CC(Nc2ncc3c(c2F)[C@@](C)(c2cccc(Cl)c2F)CN(c2nn(C)cc2F)C3=O)C1 [compound 73, 2-(3-{[(5R)-5-(3-chloro-2-fluorophenyl)-4-fluoro-7-(4-fluoro-1-methyl-1H-pyrazol-3-yl)-5-methyl-8-oxo-5,6,7,8-tetrahydro-2,7-naphthyridin-3-yl]amino}azetidin-1-yl)-N-(cyclopropylmethyl)-N-methylacetamide] |
| 129% | 39.9 nM | Cn1cc(F)c(N2C[C@](C)(c3cccc(Cl)c3F)c3c(cnc(NC4CN(CC(=O)N(CC(F)(F)F)C5CC5)C4)c3F)C2=O)n1 [compound 74, 2-(3-{[(5R)-5-(3-chloro-2-fluorophenyl)-4-fluoro-7-(4-fluoro-1-methyl-1H-pyrazol-3-yl)-5-methyl-8-oxo-5,6,7,8-tetrahydro-2,7-naphthyridin-3-yl]amino}azetidin-1-yl)-N-cyclopropyl-N-(2,2,2-trifluoroethyl)acetamide] |
| 134% | 52.1 nM | COCCN(C(=O)CN1CC(Nc2ncc3c(c2F)[C@@](C)(c2cccc(Cl)c2F)CN(c2nn(C)cc2F)C3=O)C1)C1CC1 [compound 75, 2-(3-{[(5R)-5-(3-chloro-2-fluorophenyl)-4-fluoro-7-(4-fluoro-1-methyl-1H-pyrazol-3-yl)-5-methyl-8-oxo-5,6,7,8-tetrahydro-2,7-naphthyridin-3-yl]amino}azetidin-1-yl)-N-cyclopropyl-N-(2-methoxyethyl)acetamide] |
| 59.3% | 56.6 nM | Cn1cc(F)c(N2C[C@](C)(c3cccc(Cl)c3F)c3c(cnc(NC4CN(C(=O)CN[C@@H]5CCOC5)C4)c3F)C2=O)n1 [compound 76, (4R)-4-(3-chloro-2-fluorophenyl)-5-fluoro-2-(4-fluoro-1-methyl-1H-pyrazol-3-yl)-4-methyl-6-{[1-{{[(3R)-oxolan-3-yl]amino}acetyl)azetidin-3-yl]amino}-3,4-dihydro-2,7-naphthyridin-1(2H)-one] |
| 78.2% | 38.4 nM | C[C@]1(c2cccc(Cl)c2F)CN(c2cc(F)c(CO)cc2F)C(=O)c2cnc(NC3CN(C(=O)[C@@H]4C[C@@H]4F)C3)c(F)c21 [compound 77, (4R)-4-(3-chloro-2-fluorophenyl)-2-[2,5-difluoro-4-(hydroxymethyl)phenyl]-5-fluoro-6-({1-[(1S,2S)-2-fluorocyclopropane-1-carbonyl]azetidin-3-yl}amino)-4-methyl-3,4-dihydro-2,7-naphthyridin-1(2H)-one] |
| 80.7% | 62.3 nM | Cn1cc(F)c(N2C[C@](C)(c3cccc(Cl)c3F)c3c(cnc(NC4CN(C(=O)[C@@H]5C[C@H]5F)C4)c3F)C2=O)n1 [compound 78, (4R)-4-(3-chloro-2-fluorophenyl)-5-fluoro-6-({1-[(1S,2R)-2-fluorocyclopropane-1-carbonyl]azetidin-3-yl}amino)-2-(4-fluoro-1-methyl-1H-pyrazol-3-yl)-4-methyl-3,4-dihydro-2,7-naphthyridin-1(2H)-one] |
| 154% | 2500 nM | CNCc1ccc(N2CC(C)(c3cccc(Cl)c3F)c3nc(NC4CN(C(=O)C5CC5F)C4)ncc3C2=O)cc1F [compound 80, 8-(3-chloro-2-fluorophenyl)-2-({1-[(1S,2S)-2-fluorocyclopropane-1-carbonyl]azetidin-3-yl}amino)-6-{3-fluoro-4-[(methylamino)methyl]phenyl}-8-methyl-7,8-dihydropyrido[4,3-d]pyrimidin-5(6H)-one, from P11 (ENANT-2)] |
